Assays:
[1] = system: ncNF-κB pathway genes BIRC3 and NFkB2; assay: Ex vivo AZD5582 stimulation of sorted naive and memory CD4+ T cells, target gene RT-qPCR; assay type: cell-based, rhesus macaque; conditions: 1000 nM (n = 6) or 100 nM (n = 4) AZD5582, 24 h
Excerpt: We have previously shown that naive CD4^+ T cells are a major contributor to the viral reservoir in both SIV- and SHIV-infected infant macaques ([10], [11]). We were therefore interested to determine whether the dampened ART viremia that we observed in vivo was due to differential induction of ncNF-kB activation in naive and memory CD4^+ T cells following AZD5582 treatment. It is well documented that activation of naive CD4^+ T cells relies predominantly on cNF-κB and not the ncNF-κB pathway ([22]). […]
For cell sorting, peripheral CD4^+ T cells were first enriched by negative selection with the use of magnetic beads and column purification (nonhuman primate CD4^+ T cell isolation kit; Miltenyi). Enriched CD4^+ T cells were then stained with viability dye (Live/Dead Aqua) and previously determined volumes of the following fluorescently conjugated MAbs: CD3-AF700 (clone SP34-2), CD8-APC-Cy7 (clone SK1), CD95-PE-Cy5 (clone DX2), CD62L-PE (clone SK11), and CCR7-PE-Cy7 (clone 3D12) from BD Biosciences; CD4-BV650 from BioLegend. […]
Naïve and memory CD4^+ T cells were treated with 100 or 1000 nM AZD5582 for 24 h and then stored as a dry pellet until RNA extraction. […] Gene expression was normalized to TATA box binding protein (TBP) and the comparative threshold cycle (Ct) method (ΔΔCt) was used for relative quantification of gene expression. […]

[2] = system: SIVmac239; set-up: method as in PMID 31969707; conditions: adult RMs; cited from earlier work
[3] = system: CD4+ T cells from SIV-infected, ART-suppressed adult RMs; assay: Ex vivo viral RNA induction assay, adult CD4+ T cells; assay type: cell-based, rhesus macaque; conditions: 100 nM, 9 days, in presence of DTG+FTC
Excerpt: Following confirmation of ncNF-κB pathway activation in infant naive and memory CD4^+ T cells ex vivo, we next sought to evaluate SIV reactivation following ex vivo AZD5582 stimulation in CD4^+ T cells isolated from SIV-infected, ART-suppressed infant RMs compared to CD4^+ T cells from SIV-infected, ART-suppressed adult RMs. To do so, we isolated CD4^+ T cells through negative selection from the peripheral blood of five SIV-infected, ART-suppressed adult RMs and five SIV-infected, ART-suppressed infant RMs. Cells were stimulated with either 100 nM AZD5582 or rhesus specific anti-CD2/CD3/CD28 beads (as a positive control) in the presence of ART (DTG+FTC) for 9 days. The supernatant was collected to quantify SIVgag RNA through qPCR as a measure of viral reactivation.
Viable cryopreserved PBMCs from SIV-infected, ART-suppressed infant and adult RMs collected 34 to 97 weeks post ART initiation were thawed, and CD4^+ T cells were enriched by negative selection using the NHP CD4^+ T cell isolation kit (Miltenyi Biotec). […] The viral RNA content of frozen cell-free culture supernatants collected on day 9 was determined using the SIVgag qPCR described above.

## CN[C@@H](C)C(=O)N[C@H](C(=O)N1CCC[C@H]1C(=O)N[C@H]1c2ccccc2C[C@H]1OCC#CC#CCO[C@@H]1Cc2ccccc2[C@@H]1NC(=O)[C@@H]1CCCN1C(=O)[C@@H](NC(=O)[C@H](C)NC)C1CCCCC1)C1CCCCC1 [AZD5582]
[1]
  Fold induction of BIRC3 gene expression, naive versus memory CD4+ T cells: No significant difference
  Fold induction of NFkB2 gene expression, naive versus memory CD4+ T cells: No significant difference
[2]
  SIV reactivation, events >60 copies/ml: 64/140
  SIV reactivation, events >60 copies/ml (percent): 46%
  SIV reactivation, per animal (RMs with on-ART viremia): 5/9
  SIV reactivation, per animal (percent): 56%
[3]
  Animals whose CD4+ T cell cultures showed increased SIV RNA expression in supernatant: 3/5

Reference: PMC9006931, “Altered Response Pattern following AZD5582 Treatment of SIV-Infected, ART-Suppressed Rhesus Macaque Infants” (Journal of Virology, 2022)
